Experimental findings from patent US8445431B2, “Ligands having metal binding ability and targeting properties” (The Ohio State University, priority 2004, dated 2013) are described below.

One experiment relates to RRE RNA. Briefly: RRE RNA cleavage, denaturing PAGE and mass spectrometry. The settings on record: for RRE RNA cleavage (PAGE / mass spectrometry): in the presence of ascorbate, 1:1 with RRE RNA, 37° C., 6 hours; for t1 of RRE RNA substrate decrease: [RRE]=5 μM, complex/RRE 1:1, 37° C. The experiment is classed as biochemical, HIV. On the procedure: Control reactions were carried out at the same time (FIG. 18). The reactions were quenched with a loading buffer containing 8 M Urea and 0.5 M EDTA, but without dyes. The loading buffer with dyes was run in another lane to control the electrophoresis. The reaction samples were loaded onto either 15% or 20% polyacrylamide/8M urea denaturing gels (from American Bioanalytical) and electrophoresed at 300 V for 8 h. To avoid any influence on fluorescein, the reactions and gel eletrophoresis were performed in the dark. Each experiment was carried out at least in triplicate.
RNA cleavage reactions were performed in 40 μl total volumes with 100 μM unlabeled RRE RNA, 1:1 concentration ratio of Cu-peptide complex with 1 mM ascorbate in 20 mM Hepes buffer, 100 mM NaCl, pH=7.4 at 37° C. Control reactions were carried out with RRE RNA and ascorbate. ESI/MS was used to get the mass of the cleavage products. Electrospray ionization (ESI) experiments were performed on a Micromass Q-Tof™ II (Micromass, Wythenshawe, UK) mass spectrometer equipped with an orthogonal nanospray source from New Objective, Inc. (Woburn, Mass.) operated in negative ion mode. Sodium Iodide was used for mass calibration for a calibration range of m/z 500-3000. Salt buffers from the RNA samples were removed using ZipTips (Millipore, Billerica, Mass.) following recommended manufacturer protocols. The elutants from the ZipTip were used directly and infused into the electrospray source at a rate of […]. Optimal ESI conditions were: capillary voltage 3000 V, source temperature 110° C. and a cone voltage of 60 V. Q1 was set to optimally pass ions from m/z 500-3000 and all ions transmitted into the pusher region of the TOF analyzer were scanned over m/z (your ramge) with a 1 s integration time. Data was acquired in continuum mode until acceptable averaged data was obtained (10-15 minutes). ESI data was deconvoluted using MaxEnt I provided by Micromass (FIGS. 19-21) and the cleavage sites were assigned (FIG. 22).

The test system of experiment [1] is pUC19 supercoiled plasmid DNA. The experiment in a line: Plasmid DNA cleavage, agarose gel electrophoresis and quantitation. The format is biochemical. The procedure: Plasmid pUC19 (2686 bp) was purchased from New England Biolabs Inc. The plasmid was transformed into DH5α competent cells, amplified, and pure plasmid isolated using QIAGEN protocols. Fresh plasmid DNA (over 90-95% supercoiled) was prepared before each experiment to avoid contamination by any other form of plasmid DNA. In general, DNA cleavage experiments were performed with 50 μM base pair concentration of pUC19, 25 μM Cu-peptide, and 250 μM ascorbate in 10 mM Tris buffer, pH 7.4, at 37° C. A control reaction was carried out using the same conditions as the cleavage reaction, but lacking the Cu-peptide complex. The reactions were quenched with a loading buffer containing 0.5 M EDTA.
Agarose gel electrophoresis (0.8%) containing ethidium bromide was performed under standard conditions. DNA samples were run on horizontal gels in 1×TAE buffer for 90 min at […].
Quantitation of closed circular, nicked and linear DNA was made by densitometric analysis of ethidium bromide containing agarose gels. Quantitation was performed by fluorescence imaging by use of a Gel-Doc 1000 (BioRad) and data analysis with Multianalysis software (version 1.1) provided by the manufacturer using the volume quantitation method. In all cases, background fluorescence was subtracted by reference to a lane containing no DNA. A correction factor of 1.47 was used for supercoiled DNA, since the ability of ethidium bromide to intercalate into supercoiled DNA (form I) is decreased relative to nicked (form II) and linear DNA (form III). The fraction of each form of DNA was calculated by dividing the intensity of each band by the total intensities of all the bands in the lane. All results were obtained from experiments that were performed at least in triplicate.
Consequently, the reaction was considered in terms of the standard rate law shown in equation 3. The initial rate (V0) corresponding to less than 5% conversion was considered as a function of [complex]^+ (equation 4 and 5). Rate=V=d[DNA]/dt=kobs[complex]t^m (3) • where kobs=kn, [DNA] when t=0, V0=kobs[complex]0^m (4) and ln V0=m ln[complex]0+ln kobs (5) A plot of ln V0 versus ln [[GGH-Cu]^−]0 at constant DNA concentration produced a straight line relationship (R^2=0.99) (FIG. 27A).
Investigation of DNA linearization. Following cleavage, the fraction of full length linear DNA, f(III), is related to the number, n2, of double-strand breaks per molecule given by the first term of a Poisson distribution (equation 1). f(III)=n2exp(−n2) (1) The sum of single-strand, n1, and double-strand, n2, breaks per molecule (n1+n2) was determined from the fraction f(I) of supercoiled DNA remaining after treatment with the [peptide-Cu] reagent. f(I)=exp[−(n1+n2)] […] In these studies, both n1 and n2 were calculated by use of equations (1) and (2).

The subject of experiment [2] is HCV IRES RNA. The experiment in a line: HCV IRES RNA cleavage, denaturing gel. Particulars: RNA 2 μM, RNA to metal complex 1 to 10, 1 mM ascorbic acid, 37° C., 24 hours. The experiment is classed as biochemical. The procedure: The cleavage of HCV IRES RNA by GGHG-(D) peptide copper complexes was studied. […] The HCV IRES RNA cleavage reactions by peptide copper complexes, free Cu^2+, or other peptide metal complexes were carried out at 37° C. in a buffer of 50 mM HEPES pH 7.0, 100 mM NaCl, 2 mM MgCl2. After reactions, 2 μL of loading buffer containing 10% glycerol, 0.05M EDTA, and 6M urea was added into each 10 μL reaction mixture and was then heated at 95° C. for 5 min before loading into 20% acrylamide, 8M urea gel with 0.5×TAE buffer and running voltage around 100 V for overnight. Before cleavage reaction, HCV IRES RNA was heated at 95° C. for 5 min and cooled to room temperature in order to fold into correct structure.
The concentration of RNA in cleavage reaction is 2 μM. The ratio of RNA to metal complexes is 1 to 10. The oxidative cleavage reaction is performed by adding ascorbic acid to a final concentration of 1 mM and a total volume of 10 μL at 37° C. for 24 hours. The result of the cleavage reaction is obtained by running a 20% denaturing polyacrylamide gel. […] No hydrolytic product has been observed from the result. […]
The time-dependence of cleavage was also examined. […] After the reaction is finished, the result of the reaction is analyzed by running 20% acrylamide gel. The cleavage effect by peptide copper complexes is analyzed by the intensity of the fluorescent image of each band by Biorad GelDoc. […]

Experiment [3] deals with HCV IRES RNA. The experiment in a line: Binding to fluorescein-labeled HCV IRES, 96-well fluorescent reader. The settings on record: 10 nM HCV IRES, 50 mM HEPES pH 7.0, 100 mM NaCl, 2 mM MgCl2; read-out: dissociation constant between HCV IRES and the ligand. The procedure: The binding constants for peptides to HCV IRES was determined by fluorescence methods. The sequence of the HCV IRES RNA is: […] (SEQ ID NO: 33). The sequence of the peptide recognition motif is: Y-(D)-RFK. The sequence of the metal binding peptide is: GGH. The sequence of the ligand having a metal binding domain and a recognition domain is GGHGY-(D)-RFK, where (D) indicates a (D) configuration amino acid.
A 10 nM HCV IRES with a fluoroscein label was titrated with increasing concentrations of the ligand, ranging from 5 to 1000 nM in a 50 mM HEPES pH 7.0, 100 mM NaCl, 2 mM MgCl2 to a total volume […]. The water used in this experiment was treated with DEPC at 37° C. overnight and autoclaved. HCV IRES RNA was heated at 95° C. for three minutes, and then slowly cooled to the room temperature. The binding event was determined by 96-well fluorescent reader with excitation wavelength at 494 nm and emission wavelength at 520 nm. The result data was plotted as fraction versus peptide concentration (FIG. 29) and then fitted with one site-binding model, where y is equal to API, and x is peptide concentration. y=Bx/(Kd+x)

A further experiment concerns the target HIV RRE RNA. The experiment in a line: Fluorescence quenching binding to 5'-fluorescein labeled RRE RNA. The settings on record: 20 mM Hepes, 100 mM NaCl, pH 7.4, room temperature. The procedure:
(§1) A 6 nM solution of 5′-fluorescein labeled RRE RNA (molecular concentration) was prepared in 20 mM Hepes buffer, 100 mM NaCl, pH=7.4. A 1 μl aliquot of 5 μM (for RRE test) or 25 μM (for TAR test) peptide or Cu-peptide complex was measured in a 300 μl quartz cuvette at room temperature using a Perkin Elmer LS50B spectrofluorimeter, with excitation (slit=6) and emission (slit=6) wavelengths set at 490 nm and 515 nm, respectively. Dissociation constants were obtained by fitting fluorescence quenching date to a one site binding equation r=Bx/(Kd+X) with binding function r (where r=(yt−y0)/(yfinal−yinitial)) versus x as peptide or Cu-peptide complex concentration (FIG. 17). The values for the dilution effect have already been subtracted from each point. Since our Cu-Rev1 complex has very little absorbance (ε515˜30 M^−1cm^−1), the inner filter effect is negligible in this assay.

Another experiment deals with HIV TAR RNA. Briefly: Fluorescence quenching binding to 5' FL-labeled TAR RNA (binding specificity). The settings on record: 20 mM Hepes, 100 mM NaCl, pH 7.4, room temperature. The procedure:
as §1

The subject of experiment [4] is GFP-RRE construct (RRE RNA fused downstream of GFP mRNA). The format is cell-based, Escherichia coli. Particulars: 10 μM final concentration; for GFP (GFP-RRE construct) expression, fluorescence intensity/total protein (mg) of control: control without any treatment.
Experimental: Escherichia coli strain BL21 (DE3) cells containing pET-21 GFP (as non-specific cleavage control) or pET-21GFP-RRE plasmid were grown to an OD600 of around 0.6, and the over-expression was induced with 0.5 mM IPTG at 37° C. incubation. The cell pellets from 500 1 culture were resuspended in resuspension buffer,^3 then lysed with sonicating. After centrifugation (14,000 rpm for 20 min), the cell lysate for each sample was transferred onto 96 well plate and the fluorescence of GFP protein was monitored by a Perkin Elmer LS50B spectrofluorimeter. Excitation and emission wavelengths were set to 390 nm and 510 nm, respectively. The amount of total protein in each cell lysate was measured with Bio-Rad protein assay.
Basically, once the RRE RNA fused downstream of the GFP mRNA is recognized and cleaved by metal-rev peptide complexes, the expression level of GFP protein will decrease accordingly, which can be monitored by the fluorescence intensity.
The expression level of GFP (GFP-RRE construct) was managed by the fluorescent emission intensity at 510 nm, with λex=390 nm. […] To correct the influence of the total number of cells lysated, the fluorescent emission intensity at 510 nm was divided by the amount of total protein for each sample.

No end group written: not given here.

On to `[Cu+2]` [Cu^2+(aq), reference compound], for which the “RRE RNA cleavage (PAGE / mass spectrometry)” value with RRE RNA is recorded as “random cleavage”. In addition, the “DNA cleavage products / pattern on gel” value in experiment [1] (with ascorbate) was “smear pattern”. Moreover, the “HCV IRES RNA cleavage (gel)” value with HCV IRES RNA [2] was “efficiency is significantly lower”.
Turning to GGHGY-(D)-RFK [the ligand], at HCV IRES RNA [3], the Kd worked out at 5.2 nM.
With GGHTRQARRNRRRRWRERQR [Rev1], the results for the Kd at HIV RRE RNA and at HIV TAR RNA were ~30 nM and ~5000 nM, respectively. Moreover, the “RRE RNA cleavage (PAGE / mass spectrometry)” value with RRE RNA was “no reaction was observed”. Also, the “GFP (GFP-RRE construct) expression, fluorescence intensity/total protein (mg) of control” value in experiment [4] is on record as “around 40%”.
Take “TRQARRNRRRRWRERQR [Rev peptide, reference compound]”: the “effect on GFP (GFP-RRE construct) expression” value in experiment [4] is “No decrease”.
Turning to “[GGH-Cu]^−: complex of peptide GGH with divalent copper (Gly-Gly-His; also: complex with divalent copper)”, the “time to quantitative production of nicked plasmid DNA (form II)” value in experiment [1] ([DNA]=50 μM, complex 25 μM, ascorbate 250 μM) was ≤ 28 min. In addition, the “kobs, pseudo-first order disappearance of supercoiled DNA” value in experiment [1] ([DNA]=50 μM, complex 25 μM, ascorbate 250 μM, 10 mM Tris pH 7.4, 37° C.) was ~0.07 min⁻¹. For the same molecule, in experiment [1] (from ln V0 plots, with ascorbate), the “k2, second-order rate constant of DNA cleavage” value is ~39 M⁻¹ s⁻¹. Further, the “concentration at which DNA cleavage activity is evident” value in experiment [1] (in the presence of ascorbate) was determined as 10 µM. Further, the “DNA cleavage products / pattern on gel” value in experiment [1] (with ascorbate) is reported as “linear DNA was not found”.
Take “copper complex of Rev1 peptide GGHTRQARRNRRRRWRERQR [Cu-Rev1]”: the Kd on HIV RRE RNA is ~35 nM; on HIV TAR RNA, ~5000 nM. The “RRE RNA cleavage in the absence of ascorbate” value in the experiment on RRE RNA (hydrolytic condition) is reported as “much slower pace”. Moreover, the “t1 of RRE RNA substrate decrease” value in the experiment with RRE RNA (hydrolytic condition) amounted to 6.36 h; in the experiment on RRE RNA (oxidative condition with ascorbate), 4.75 h. Besides, the “RRE RNA cleavage (PAGE / mass spectrometry)” value in the experiment on RRE RNA (listed as Cu-Rev1 peptide complex) was “three specific cleavage sites”; in the experiment with RRE RNA (listed as Cu-peptide complex), “effective”. The “GFP (GFP-RRE construct) expression, fluorescence intensity/total protein (mg) of control” value in experiment [4] is “around 40%”.
